Measured values published in publication PMC10732398 (PLOS Pathogens, 2023).

Legend:
⍺4β7 on RPMI8866 cells = test: Flow cytometry: cross-inhibition of MAdCAM-Ig, VCAM-Ig and D1D2-Ig⍺tp binding to RPMI8866 cells; parameters: species or system human; conditions: increasing concentrations of unlabeled inhibitor, Fig 2C, 2D
Description: Cis interactions between various integrins and leukocyte receptors are known to regulate immune cell functions. To determine whether CD4 inhibits MAdCAM-1 or VCAM-1 binding to ⍺4β7 we preincubated RPMI8866 cells with labelled MAdCAM-Ig or VCAM-Ig in the presence of increasing concentrations of unlabeled D1D2-Ig⍺tp. […] This implies that MAdCAM-1 and VCAM-1, acting in trans, may interfere with CD4-⍺4β7 interactions. What remains unknown is whether interactions between ⍺4β7 and CD4 impact CD4 migration into the TCR and subsequent interactions with MHC II (Fig 2E).
Fig 2 Cross-inhibition of MAdCAM-Ig, VCAM-Ig and D1D2-Ig⍺tp binding to ⍺4β7. Flow cytometric analysis of (A) PE -conjugated MAdCAM-Ig or (B) PE -conjugated VCAM-Ig binding to RPMI8866 cells pre-incubated with increasing concentrations of unlabeled D1D2-Igαtp. Cell preincubated with increasing concentrations of (C) unlabeled MAdCAM-Ig or (D) VCAM-Ig followed by PE -conjugated D1D2-Ig⍺tp. Y-axis indicates gMFI. Dashed line indicates gMFI in the absence of any inhibitor.
Cells were stained with fluoresceine conjugated mAbs or recombinant proteins using standard procedures preceded by Fc receptor blocking with human IgG. Buffers used were 10 mM HEPES 150 mM NaCl (HBS Buffer) with 100 μM CaCl2. […] Data were acquired using a FACSCanto II (BD Biosciences) and analyzed with FlowJo software (BD Biosciences). […]

⍺4β7 = test: SPR: inhibition by linear peptides of soluble ⍺4β7 binding to a CD4 D1D2 coated surface; conditions: SPR peptide scan (Fig 4A); ⍺4β7 pre-incubated with peptide 2 hours at room temperature; 1 mM MnCl2
Description: We next modified our SPR -based assay in order to map the site(s) on CD4 that interacts with ⍺4β7. In this modified assay ⍺4β7 was passed over a surface coated with CD4 D1D2 in the absence or presence of 42 overlapping 15 amino acid linear peptides spanning CD4 residues 1–178 (S2 Table). Two peptides located in CD4 D1, #7 and #9, inhibited ⍺4β7 binding by ~17% (Fig 4A). The final peptide in CD4 D2, p42, inhibited binding by ~ 66%. Linear peptides often lack the true conformation of the protein from which they are derived. Additionally, the kinetic format of our assay allows for ligand-analyte rebinding during the association phase. These features render this inhibition assay somewhat insensitive. Nevertheless, the dynamic range of this assay is sufficient to identify interactions that are worthy of follow-up investigation (S4 Fig). As such, our preliminary findings raised the possibility that both D1 and D2 domains of CD4 interact with ⍺4β7. Of note, MAdCAM-1 and VCAM-1, like CD4, present two tandemly arrayed N-terminal IgSF domains (Fig 4B). In both cases, binding to ⍺4β7 is mediated by a 1° binding site in their D1s and an accessory site, located in their D2s. The term accessory is a misnomer insofar as these sites plays an essential role in ⍺4β7 binding. Follow-up experiments focused on p9 and p42, which we herein refer to as pCD4^33-47 and pCD4^165-178. pCD4^33-47 partially overlaps the D1 C’C” β-strands and a connecting loop. The primary gp120 contact site (Phe^43) lies at the N-terminal edge of this loop (Fig 4C). pCD4^165-178 includes Q^165 and K^166. These residues lie primarily within the G β-strand of D2, close to the boundary with D3. Because peptide inhibition assays sometime mediate nonspecific effects, further analysis was performed to better establish the role of these two regions of CD4 in binding to ⍺4β7.
To determine if this is the case, we employed an SPR -based assay. Biosensor surfaces were coated with either CD4 D1D2 or a 42 aa cyclic V2 peptide derived from the subtype E 92TH023 gp120 (cV2 92TH023). A third surface coated with MAdCAM-Ig was employed as a positive control. Soluble ⍺4β7 was passed over these surfaces. We then evaluated the capacity of staggered 15 aa peptides that span either CD4 D2 or gp120 V2 to inhibit this interaction (Fig 7A).
Experiments were performed using a Biacore 3000 instrument (Cytiva Life Sciences) using CM4 or CM5 sensor chips. The data were evaluated using BIAevaluation 4.1.1 software (Cytiva Life Sciences). The chip surface was activated by injecting 35 μl of a 1:1 mixture of 0.05 M N-hydroxysuccinimide and 0.2 M N-ethyl-N-(dimethylaminopropyl) carbodiimide at 5 μl/min. NeutrAvidin, HIV gp120, sCD4 (D1D2) or Hu-MAdCAM-Ig (R&D Systems) at concentrations of 5 μg/ml in 10mM NaOAc, pH 4.5, were immobilized to 250–750 resonance units (RU). After the proteins were immobilized to the desired densities, unreacted sites were blocked with 35 μl of 1 M Tris-HCl (pH 8.0). Biotinylated cyclic V2 peptides (1 μg/ml in 20 mM Tris-HCl, pH 8.0) were bound to the NeutrAvidin surfaces to densities of approximately 250–300 RU. One surface was activated and blocked without ligand as a control surface for non-specific binding. Signal from the control surface was subsequently subtracted. Running buffer was HBS (pH 7.4), 1 mM MnCl2, 0.005% Tween- 20, 0.05% soluble carboxymethyl-dextran. Binding experiments were carried out at a flow rate of 25 μl/min at 25°C. After a 2 min injection, the surface was washed for an additional 2 min in running buffer allowing dissociation of the bound ligand from the surface. The surfaces were regenerated by multiple injections of 4.5 M MgCl2 at a flow rate of 100 μl/min. Inhibition of ⍺4β7 binding by linear V2-loop and CD4 derived peptides was carried out by pre-incubating ⍺4β7 with the peptides in running buffer at the indicated concentrations for 2 hours at room temperature prior to passing them over the prepared surfaces as described above. […]

Substance | inhibition of PE-conjugated D1D2-Ig⍺tp binding to ⍺4β7 (in words) (⍺4β7 on RPMI8866 cells) | inhibition of ⍺4β7 binding to CD4 D1D2 coated surface (⍺4β7)
MAdCAM-Ig: recombinant MAdCAM-1 Ig fusion, R&D Systems [reference compound] | inhibited D1D2-Ig⍺tp binding to ⍺4β7 in a dose dependent manner | 
QKKVEFKIDIVVLA [CD4 P42, linear CD4 D2 peptide, residues 165-178, G β-strand] |  | ~ 66%
